US9433211B2, “Antimicrobial agent” (TAIYO CORPORATION, priority 2012, dated 2016)
Converted amounts (≈) assume the structure as drawn.

Tests used:
[1] = system: black mold (A. niger, JCM10254); test: Verification test of antimicrobial effects (minimum inhibitory concentration) on black mold; format: cell-based; details: for MIC: Aspergillus niger, JCM10254, 96 h; for MIC / Minimum inhibitory concentration: A. niger, cultured at 30° C. aerobic four days, visual turbidity, 156-2500 ppm tested; for antimicrobial activities, comparison in words: against black mold (A. niger), from the results in Table 1
Experimental: (§1) 0.5 ml of a previously sterilized culture medium (trade name “Potato dextrose liquid culture medium”, made by Nissui Pharmaceutical Co., Ltd. was placed into a 96-well deep type microplate, then the propanediol mono-β-hydroxycarboxylic acid esters (the present invention products 1 to 10), the glycerin mono β-hydroxydecanoic acid ester (comparative product 1), the β-hydroxydecanoic acid potassium (comparative product 2) prepared in the above descriptions of (1) to (5) as well as 1,2-octanediol (comparative product 3), 1,2-propanediol (comparative product 4) and 1,3-propanediol (comparative product 5) known as an auxiliary antiseptic agent for external preparations for skin were respectively added, and the culture medium was diluted in a step-wise manner so that the final concentration in the medium was 156 ppm, 312 ppm, 625 ppm, 1250 ppm, and 2500 ppm to prepare sample solutions.
(§2) To these sample solutions, 0.1 ml of each culture solution of blackmold (A. niger, JCM10254) and yeast (C. albicans, NBRC1594) at approximately 1×10^6 CFU/ml were added, and the solutions were cultured at 30° C. under an aerobic condition for four days. Antimicrobial effects were visually determined. The solutions were compared with test areas in which the above microorganisms had not been added. Test areas in which no turbidity due to growth of the microorganism was observed were determined to have antimicrobial effects, and the lowest concentration necessary for inhibiting the growth of the microorganism (hereinafter referred to as “minimum inhibitory concentration”) was measured.

[2] = system: yeast (C. albicans, NBRC1594); test: Verification test of antimicrobial effects (minimum inhibitory concentration) on yeast; format: cell-based; details: for MIC: 96 h; for MIC / Minimum inhibitory concentration: C. albicans, cultured at 30° C. aerobic four days, visual turbidity, 156-2500 ppm tested; for antimicrobial activities, comparison in words: against yeast (C. albicans), from the results in Table 1
Experimental: as §1, §2

[3] = Compounding property in cosmetic, pharmaceutical and industrial formulations; format: physicochemical; details: 0.30 weight %
Experimental: Glycerin, DPG, POE (60) hydrogenated castor oil, and 1,3-propanediol mono-β-hydroxydecanoic acid ester were mixed and dissolved by being heated to 70° C. (the resulting mixture was referred to as a mixture A). On the other hand, citrate acid Na, citric acid, glycine, alanine, hyaluronic acid Na, and water were individually mixed at room temperature (the resulting mixture was referred to as a mixture B). Then, the mixture A and the mixture B were combined and mixed at 50° C., and thus a lotion was obtained.
Cetanol, squalane, stearic acid, γ-tocopherol, BHT, polyethylene glycol monostearate (25EO), glycerin stearic acid monoester, and 1,3-propanediol mono-β-hydroxydecanoic acid ester were individually mixed and dissolved by being heated to 70° C. (the resulting mixture was referred to as a mixture A). On the other hand, 1,3-butanediol, carboxy vinyl polymer, and potassium hydroxide were individually mixed at room temperature (the resulting mixture was referred to as a mixture B). Then, the mixture A and the mixture B were combined and heated to 60° C. and were vigorously stirred and emulsified while being gradually added in small quantities to the purified water, and thus a milky lotion was obtained.
With regard to the compounding example 6, pantothenic acid, hyaluronic acid, thioxolone, hydrocortisone acetate, tocopherol, and minoxidil were mixed individually and dissolved by being heated to 70° C. (the resulting mixture was referred to as a mixture A). On the other hand, glycerin, polyoxyethylene glycol monoether, ethanol, and the present invention product 8 (1,3-propanediol mono-β-hydroxydecanoic acid ester) were mixed at room temperature (the resulting mixture was referred to as a mixture B). Then, the mixture A and the mixture B were combined and heated to 70° C. and were vigorously stirred while being added gradually in small quantities to water, and thus a hair growth liquid was obtained.
In preparing the compounding example 11, polyoxyethylene nonylphenylether, polyoxyethylene sorbitan monosterate, BHT, and fragrant material were mixed individually and dissolved by being heated to 80° C. (the resulting mixture was referred to as a mixture A). On the other hand, gellan gum, propylene glycol, the present invention product 8 (1,3-propanediol mono-β-hydroxydecanoic acid ester), and water were mixed at 80° C. (the resulting mixture was referred to as a mixture B). Then, the mixture B was gradually added in small quantities to the mixture A, heated to 80° C., and were vigorously stirred, and thus a transparent aqueous aromatic agent for vehicles was obtained.

[4] = hair growth liquid (compounding example 6)
[5] = transparent aqueous aromatic agent for vehicles (compounding example 11)

MIC [1] [µg/mL] | MIC [2] [µg/mL] | Structure (SMILES) | antimicrobial activities, comparison in words [2] | Minimum inhibitory concentration [1] [ppm] | Minimum inhibitory concentration [2] [ppm] | further results
1250 | 2500 | CCCCCCCC(O)CC(=O)O.[K] (stereo not drawn) [Comparative product 2, β-hydroxydecanoic acid potassium, reference compound] | – | – | – | –
156 (≈ 569 µM) | 312 (≈ 1140 µM) | CCCCCCCCCC(O)CC(=O)OCCCO (stereo not drawn) [Present invention product 6, 1,3-propanediol mono-β-hydroxydodecanoic acid ester] | – | – | – | –
312 (≈ 1270 µM) | 625 (≈ 2540 µM) | CCCCCCCC(O)CC(=O)OCCCO (stereo not drawn) [Present invention product 8, 1,3-propanediol mono-β-hydroxydecanoic acid ester] | very stronger antimicrobial activities | – | – | antimicrobial activities, comparison in words [1]: very stronger antimicrobial activities; compounding property: mixing with other components [3, 4]: easily mixed with other components; compounding property: turbidity or precipitation in the obtained product [3, 4]: not found; compounding property: mixing with other components ([3]; lotion): easily mixed with other components; compounding property: turbidity or precipitation in the obtained product ([3]; lotion): not found; compounding property: mixing with other components [3, 5]: easily mixed with other components; compounding property: turbidity or precipitation in the obtained product [3, 5]: not found
– | – | CCCCCCCC(O)CC(=O)OCC(O)CO (stereo not drawn) [Comparative product 1, glycerin mono β-hydroxydecanoic acid ester, reference compound] | – | 2500 | >2500 | –
312 (≈ 1200 µM) | 312 (≈ 1200 µM) | CCCCCCCCC(O)CC(=O)OCCCO (stereo not drawn) [Present invention product 7, 1,3-propanediol mono-β-hydroxyundecanoic acid ester] | – | – | – | –
2500 (≈ 17100 µM) | 2500 (≈ 17100 µM) | CCCCCCC(O)CO (stereo not shown) [Comparative product 3, 1,2-octanediol, reference compound] | – | – | – | –
– | – | CCCCCCC(O)CC(=O)OCCCO (stereo not drawn) [Present invention product 9, 1,3-propanediol mono-β-hydroxynonanoic acid ester] | – | 1250 | 1250 | –
312 (≈ 1270 µM) | 625 (≈ 2540 µM) | CCCCCCCC(O)CC(=O)OCC(C)O (stereo not drawn) [Present invention product 3, 1,2-propanediol mono-β-hydroxydecanoic acid ester] | very stronger antimicrobial activities | – | – | antimicrobial activities, comparison in words [1]: very stronger antimicrobial activities
– | – | CCCCCC(O)CC(=O)OCC(C)O (stereo not drawn) [Present invention product 5, 1,2-propanediol mono-β-hydroxyoctanoic acid ester] | lower than 1,2-octanediol | 2500 | >2500 | –
– | – | CCCCCC(O)CC(=O)OCCCO (stereo not drawn) [Present invention product 10, 1,3-propanediol mono-β-hydroxyoctanoic acid ester] | lower than 1,2-octanediol | 2500 | >2500 | –
– | – | CCCCCCC(O)CC(=O)OCC(C)O (stereo not drawn) [Present invention product 4, 1,2-propanediol mono-β-hydroxynonanoic acid ester] | – | 1250 | 1250 | –
– | – | CC(O)CO (stereo not shown) [Comparative product 4, 1,2-propanediol, reference compound] | lower antimicrobial activities | >2500 | >2500 | antimicrobial activities, comparison in words [1]: lower antimicrobial activities
– | – | OCCCO [Comparative product 5, 1,3-propanediol, reference compound] | lower antimicrobial activities | >2500 | >2500 | antimicrobial activities, comparison in words [1]: lower antimicrobial activities
312 (≈ 1140 µM) | 312 (≈ 1140 µM) | CCCCCCCCCC(O)CC(=O)OCC(C)O (stereo not drawn) [Present invention product 1, 1,2-propanediol mono-β-hydroxydodecanoic acid ester] | – | – | – | –
312 (≈ 1200 µM) | 312 (≈ 1200 µM) | CCCCCCCCC(O)CC(=O)OCC(C)O (stereo not drawn) [Present invention product 2, 1,2-propanediol mono-β-hydroxyundecanoic acid ester] | – | – | – | –
